# The source made the active and inactive calls. The calls are words filed in the database; no cut-off is given here.
# Assays:
# Assay type in all cases: functional, organism-based
# Human adenovirus D37 [1] = experiment: Induction of Human adenovirus 37 1477 aggregation by negative staining transmission electron microscopy
# Human adenovirus D37 [2] = experiment: Inhibition of 35S-labeled Human adenovirus 37 1477 virion binding to human HCE cells at 1:9 compound to PDA ratio formulation prepared by extrusion method after 1 hr by scintillation counting; conditions: Human mastadenovirus D, 1477, HCE
# Human adenovirus D37 [3] = experiment: Inhibition of 35S-labeled Human adenovirus 37 1477 virion binding to human HCE cells at 0.5:9.5 compound to PDA ratio formulation prepared by probe sonication method after 1 hr by scintillation counting; conditions: Human mastadenovirus D, 1477, HCE
# Human adenovirus D37 [4] = experiment: Inhibition of 35S-labeled Human adenovirus 37 1477 virion binding to human HCE cells at 2:8 compound to PDA ratio formulation prepared by extrusion method after 1 hr by scintillation counting; conditions: Human mastadenovirus D, 1477, HCE
# Human adenovirus D37 [5] = experiment: Induction of 35S-labeled Human adenovirus 37 1477 aggregation by liquid scintillation counting
# Human adenovirus D37 [6] = experiment: Antiviral activity against Human adenovirus 37 1477 in human HCE cells assessed as inhibition of viral infection to host cells after 44 hrs by immunofluorescence microscopic analysis; conditions: Human mastadenovirus D, 1477, HCE
# Human adenovirus D37 [7] = experiment: Inhibition of 35S-labeled Human adenovirus 37 1477 virion binding to human HCE cells at 1:9 compound to PDA ratio formulation prepared by probe sonication method after 1 hr by scintillation counting; conditions: Human mastadenovirus D, 1477, HCE
# Human adenovirus D37 [8] = experiment: Inhibition of 35S-labeled Human adenovirus 37 1477 virion binding to human HCE cells at 0.1:9.9 compound to PDA ratio formulation prepared by probe sonication method after 1 hr by scintillation counting; conditions: Human mastadenovirus D, 1477, HCE
compound,measurement,setting,value
CCCCCCCCCCCCC#CC#CCCCCCCCCC(=O)NCCOCCOCCOCCOCCOCCC(=O)NCCCCCO[C@]1(C(=O)O)C[C@H](O)[C@@H](NC(C)=O)[C@H]([C@H](O)[C@H](O)CO)O1,Activity,Human adenovirus D37 [1],Active
same,IC50,Human adenovirus D37 [2],4 µM
same,IC50,Human adenovirus D37 [3],< 25 µM
same,IC50,Human adenovirus D37 [4],26 µM
same,Activity,Human adenovirus D37 [5],Active
same,IC50,Human adenovirus D37 [6],0.7 µM
same,IC50,Human adenovirus D37 [7],0.9 µM
same,IC50,Human adenovirus D37 [8],> 5 µM
CCCCCCCCCCCCCCCCCCCCCCCC(=O)NCCOCCOCCOCCOCCOCCC(=O)NCCCCCO[C@]1(C(=O)O)C[C@H](O)[C@@H](NC(C)=O)[C@H]([C@H](O)[C@H](O)CO)O1,IC50,Human adenovirus D37 [2],21 µM
CCCCCCCCCCCCCCCCCC(=O)NCCOCCOCCOCCOCCOCCC(=O)NCCCCCO[C@]1(C(=O)O)C[C@H](O)[C@@H](NC(C)=O)[C@H]([C@H](O)[C@H](O)CO)O1,IC50,Human adenovirus D37 [2],> 50 µM
CCCCCCCCCCCCC#CC#CCCCCCCCCC(=O)NCCOCCOCCOCCOCCOCCOCCOCCOCCOCCOCCOCCOCCC(=O)NCCCCCO[C@]1(C(=O)O)C[C@H](O)[C@@H](NC(C)=O)[C@H]([C@H](O)[C@H](O)CO)O1,IC50,Human adenovirus D37 [2],7 µM
CCCCCCCCCCCCC#CC#CCCCCCCCCC(=O)NCCOCCOCCOCCC(=O)NCCCCCO[C@]1(C(=O)O)C[C@H](O)[C@@H](NC(C)=O)[C@H]([C@H](O)[C@H](O)CO)O1,IC50,Human adenovirus D37 [2],> 50 µM
